{
  "source": "patent US10875861B1",
  "about": "“Therapeutic compounds” (Rutgers, The State University of New Jersey, priority 2017, dated 2020)",
  "key": {"[1]": {"test_system": "glioblastoma cancer cell line", "assay": "MTT viability assay with glioblastoma cancer cell line (Test A)", "format": "cell-based, human", "conditions": "Homo sapiens, 72 hours", "source_text": "To generate primary patient-derived GBM models for testing small molecule inhibitors, fresh primary tissues were received from patients undergoing surgical resection of WHO grade IV gliomas at Robert Wood Johnson University Hospital (RWJUH) under an approved IRB protocol. De-identified primary human GBM samples were delivered to the laboratory. Cells were obtained through mechanical dissociation of the tumor tissue using a blade and plated in DMEM/F12 medium (Gibco) in the presence of B-27 Supplement (Gibco, #17504-044), 20 ng/ml of human recombinant EGF (Gibco, #PHG0311L) and human recombinant FGF (Peprotech, #AF-100-18B). The following day, the culture was collected, incubated with Accutase (Gibco, #A11105-01) at 37° C. and passed through a 26G×⅜ needle (BD Precision Glide, #305110) to obtain a single cell suspension and re-plated in the same supplemented medium. Cells were cultured at low (5-6) passages in serum-free sphere 3D culture with mitogens that preserve the clonogenic stemness phenotype. […] different primary GBM cells (GBM #46, GBM #50, and GBM #76) were tested for cell viability after treatment with the inhibitors. Cell viability was measured using MTT assay. Briefly, one thousand cells per well were seeded in 96-well plates and exposed to drug in a total of 200 uL media. After 72 hours, 50 uL of stock concentration of 2.5 mg/mL 3-(4,5-dimethylthiazol-2-yl)-2,5-diphenyltetrazolium bromide (MTT) (Sigma, #M2128) dissolved in PBS was added to wells and incubated at 37° C. for 4 hours; read in a […] plate reader at 570 nm and compared to DMSO and untreated cells. The IC50 (defined as the concentration at which 50% of the cells were viable) was determined from the curve.\nAccordingly, compounds of the invention may be useful as therapeutic agents for the treatment of cancer.\nTo generate primary patient-derived GBM models for testing small molecule inhibitors, fresh primary tissues were received from patients undergoing surgical resection of WHO grade IV gliomas at Robert Wood Johnson University Hospital (RWJUH) under an approved RB protocol. De-identified primary human GBM samples were delivered to the laboratory. Cells were obtained through mechanical dissociation of the tumor tissue using a blade and plated in DMEM/F12 medium (Gibco) in the presence of B-27 Supplement (Gibco, #17504-044), 20 ng/ml of human recombinant EGF (Gibco, #PHG0311L) and human recombinant FGF (Peprotech, #AF-100-18B). […] Cell viability was measured using MTT assay. […] After 72 hours, 50 uL of stock concentration of 2.5 mg/mL 3-(4,5-dimethylthiazol-2-yl)-2,5-diphenyltetrazolium bromide (MTT) (Sigma, #M2128) dissolved in PBS was added to wells and incubated at 37° C. for 4 hours; read in a […] plate reader at 570 nm and compared to DMSO and untreated cells. […]"}, "[2]": {"test_system": "BMI-1 and ubiquitinated histone H2A in primary glioblastoma cells", "assay": "Modulation / dynamics of BMI-1 and downstream targets in GBM cells (Western blotting)", "format": "cell-based, human", "conditions": "GBM cells, B compounds, 72 hours", "procedure": "Different GBM cells were treated with DMSO or different concentrations of the B compounds for 72 hours. Cells were lysed in Cell Lysis Buffer (Cell Signaling, #9803) supplemented with Protease Inhibitor Cocktail (Sigma, #P8340), spun down for 30 minutes at 4° C., after which the supernatant was collected at every time point indicated. Western blotting analysis was performed on all samples as described above. BMI-1 loss started at 6-12 h, coinciding with an upper shift and hyper-phosphorylation of BMI-1 at 12-24 h and complete depletion at 72 h.\nTo study the compound dynamic activity against GBM spheres, GBMs were tested with exemplary compounds. Different GBM cells were treated with DMSO or different concentrations of the inhibitors for 72 hours. Cells were lysed in Cell Lysis Buffer (Cell Signaling, #9803) supplemented with Protease Inhibitor Cocktail (Sigma, #P8340), spun down for 30 minutes at 4° C., after which the supernatant was collected at every time point indicated. Western blotting analysis was performed on all samples as described above. […] BMI-1 loss started at 6-12 h, coinciding with an upper shift and hyper-phosphorylation of BMI-1 at 12-24 h and complete depletion at 72 h. […] This is expected since BMI-1 is known to suppress p21. BMI-1 inhibition could be reversed using phosphatase treatment, moreover, when proteasomal inhibitor is added to treated cells after 24 h, BMI-1 is locked in the phosphorylated state, therefore showing that the phosphorylation event precedes BMI-1 degradation. The phosphorylation was independent of p38 kinase activation, as when we added […], the p38 inhibitor to the cultured cells upon treatment with the BMI-1 inhibitor, the combined treatment could not reverse the effects of RU-A15 on BMI-1 inhibition."}},
  "data": [
    {"smiles": "COc1ccc(Nc2nc(-c3nc4ncccn4c3C)cs2)cc1", "note": "[Example B1, N-(4-methoxyphenyl)-4-(3-methylimidazo[1,2-a]pyrimidin-2-yl)thiazol-2-amine]", "values": [
      {"measurement": "EC50", "setting": "[1]", "result": 5, "unit": "µM"},
      {"measurement": "modulation of BMI-1 (Test B)", "setting": "[2]", "result": "modulation of BMI-1"},
      {"measurement": "modulation of ubiquitinated histone H2A (Test B)", "setting": "[2]", "result": "modulation of downstream target ubiquitinated histone H2A"}
    ]}
  ]
}
